For the assay, the system named is db/db mice. The assay can be described thus: Test for Activity of Decreasing Plasma Glucose using db/db Mice. The class given is in vivo. Particulars: female db/db mice, dose of 10 mg/kg, mixed with powdered chow (0.01%), 14 days, difference between db/db and +/+ mouse groups defined as 100%. The source says:
Test Example: Test for Activity of Decreasing Plasma Glucose using db/db Mice
1-(Isoquinolin-3-ylmethyl)-2-methyl-6-(1-pentanesulfonyl-carbamoyl)benzimidazole (13)
Five-week-old female mice [C57BL/KsJ-dbm db+/db+, C57BL/KsJ-dbm +m/+m (Jackson Laboratory) were purchased, and were kept for 2 to 3 weeks. Then, these mice were used in the test.
A test compound was mixed with a powdered chow (CE-2, made by Nippon Clea) using a mortar. The mixing ratio was 0.01%. The mixed chow was changed twice a week. The feed amount and the remaining amount were recorded, and the intake was calculated from the difference therebetween.
The female db/db mice were grouped according to the body weight, the plasma glucose and the plasma triglyceride concentrations. […] Plasma glucose, triglyceride, and insulin concentrations were measured on day 0 and day 14 as well as plasma glucose and triglyceride concentrations on day 7. The body weight was measured on day 0, day 7 and day 14. […]
The plasma glucose was measured by a glucose oxidase method (Glucose CII-Test Wako made by Wako Pure Chemical Industries, Ltd.) using from 10 to 15 μl of plasma. The plasma triglyceride concentration was measured by a GPO-p-chlorophenol method (Triglyceride G-Test Wako made by Wako Pure Chemical Industries, Ltd.) or a GPO-DAOS method (Triglyceride E-Test Wako) using from 10 to 15 μl of plasma. […]

In the case of `CCCCCS(=O)(=O)NC(=O)c1ccc2nc(C)n(Cc3cc4ccccc4cn3)c2c1` [Compound 13, 1-(Isoquinolin-3-ylmethyl)-2-methyl-6-(1-pentane-sulfonylcarbamoyl)benzimidazole], the “plasma glucose decreasing activity” value is listed as 44%. Besides, the TG concentration-decreasing activity (plasma triglyceride) was found to be 77%.

Source of the values: US6420409B1, “Benzimidazole derivatives” (Fujisawa Pharmaceutical Co., Ltd., priority 1997, dated 2002).
